What was measured:
[1] = Double cuvette-ISES (in situ enzymatic screening) of Co(III)-salen mediated HKR of (±)-propylene oxide; settings: for ISES signal: over 35 min; for % ee of the 1,2-propanediol product, as predicted by double-cuvette ISES (upper number): bilayer of pH 8.6 buffer over 7.2 M epoxide in CHCl3, 0.25 mol % catalyst, 15-35 min, + = (S), − = (R)
Description: Aqueous reporting layers. containing TBADH/NADP+ (cuvette 1) and HLADH/NAD+ (cuvette 2), respectively, are then added. The increase in absorbance at 340 nm can be followed for several such sets in parallel by UV-vis spectrophotometry. The kinetic data are then used to make the double-cuvette ISES predictions.
A general procedure for double cuvette-ISES to estimate both enantioselectivities and relative rates for an array of catalysts being screened in parallel is presented below. The hydrolytic kinetic resolution (HKR) of (±) propylene oxide was chosen as model reaction.
Typically, quartz cuvettes with one cm light paths and with nominal one mL volumes were used. For each catalyst, a two cuvette screen was performed, with cuvette A containing HLADH, as (S)-propanediol-selective reporting enzyme, and cuvette B containing TBADH, as a (R)-propanediol-selective reporting enzyme. For each cuvette, the final volume was 800 μL (300 μL of organic layer; 500 μL of aqueous layer).
Both cuvettes A and B had the following composition: 150 μL (2.15 mmol) of (±)-propylene oxide (7.2 M in organic layer), 150 μL of CHCl3 and 0.25 mol % Co(III)-salen catalyst. The total organic layer volume was maintained as 300 μL in all catalyst screens.
(i) Cuvette A: 0.35 U HLADH (17.6 μL from a stock solution (0.02U/μL)), 7.2 mM β-NAD+(16.5 μL from a 220 mM stock) and 465.8 μL of 50 mM sodium pyrophosphate buffer, pH 8.8. The final pH was 8.6.
(ii) Cuvette B: 0.35 U TBADH (15.8 μL from a stock solution (0.022U/μL)) of, 2.2 mM β-NADP+ (5 μL from a 220 mM stock) and 479.5 μL of 50 mM sodium pyrophosphate buffer, pH 8.8. The final pH was 8.6. The total volume of the aqueous layer was maintained as 500 μL in both cuvettes in all ISES experiments.
C. Step by Step Protocol: A catalyst stock solution (22 μmol of catalyst in 620 μL CHCl3) was made up in a 1.5 ml microcentrifuge tube, and stored on ice, along with a stock of (±)-propylene oxide, in a separate tube. The organic layers were prepared by briefly vortexing 150 μL (5.4 μmol, 0.25 mol %) of the catalyst stock in CHCl3 with 150 μL (2.15 mmol) of (±)-propylene oxide in iced microcentrifuge tubes. These were loaded into 1 mL quartz cuvettes using precooled (refrigerator), disposable 1 mL syringes. The aqueous layers were then layered on top of the organic layers, by syringe, down the walls of the cuvette.

[2] = HKR of (±)-propylene oxide under standard neat 'Jacobsen conditions' (NMR conversion, chiral HPLC ee); settings: for NMR conv. (time) / % ee (HPLC): loading 0.25 mol %; for % ee (HPLC): reaction stopped at the time given (mostly 3 h); for % ee (HPLC) / % ee of the 1,2-propanediol product, as observed by chiral HPLC (lower number): + = (S), − = (R); for % ee of the 1,2-propanediol product, as observed by chiral HPLC (lower number): neat propylene oxide, 0.55 equiv. H2O, 0.25 mol % catalyst, 3 h reaction time
Description: Salens in the fully synthetic, 42 member focused library that led to catalysts with appreciable activity, as indicated by double cuvette-ISES, were also evaluated ‘outside of the cuvette,’ under conditions more typically employed in HKR reactions. Specifically, these Co(III)-salen catalysts were evaluated in the HKR of (±)-propylene oxide, under neat conditions, similar to those described by Jacobsen and coworkers. Reactions were arbitrarily stopped after 3 hours, to obtain the enantiopurity of the 1,2-propanediol product at relatively early reaction times, for comparison with ISES predictions.
A typical procedure follows: To the Co(III)-salen catalyst derived from 7e (5.4 mg, 5.4 μmol, 0.25 mol %) and (±)-propylene oxide (125 mg, 2.15 mmol) at 0° C., was added water (21 μL, 1.18 mmol, 0.55 equiv.). The reaction mixture was securely capped, and allowed to warm to room temperature and stirred, most commonly for a total of 3 hours. Percent conversion at 3 hours was evaluated by 1H NMR of an aliquot (cooled to 0° C. for the transfer), in CDCl3. In most of these cases, the conversion was low enough after 3 hours, that the unreacted epoxide (bp 32° C.) was of relatively low ee, and was therefore removed by evaporation under aspirator vacuum. When the conversion was less than 5% by NMR after 3 hours, reactions were continued for longer times.
Upon termination of the reaction, the diol product was isolated by Kugelrohr distillation (˜120° C.-oven temp; 0.1 torr). To determine ee, the isolated diol was derivatized using p-bromobenzoyl imidazole (2.2 equiv.) in THF in the presence of NaH (4 equiv.) at room temperature for 5 min. The bis(p-bromobenzoate) esters obtained following sequential washes with 1 N HCl and saturated sodium bicarbonate, were of sufficient purity to be used directly for chiral HPLC analysis (Chiralcel OD, 99% […]). [drawing 23] [drawing 24] [drawing 25] [drawing 26] [drawing 27]

## Oc1cc(OCc2ccccc2)ccc1C=NC[C@H](Cc1ccc2ccccc2c1)N=Cc1ccc(OCc2ccccc2)cc1O [Salen 5f, N,N′-Bis(4′-benzyloxysalicylidene)-(1S)-(β-naphthylmethyl)-1,2-ethylenediamine]
[1]
  ISES signal: § (These catalysts gave ISES signals <20 mAbs min−1 over 35 min.)

## Oc1c(C=NC[C@H](Cc2ccccc2)N=Cc2ccc3ccccc3c2O)ccc2ccccc12 [Salen 3d, N,N′-Bis(1′-hydroxy-2′-naphthylidene)-(1S)-benzyl-1,2-ethylenediamine]
[1]
  % ee of the 1,2-propanediol product, as predicted by double-cuvette ISES (upper number): −54 % ee
[2]; 3 h
  NMR conv. (time): 10 (3 h) %
[2]
  % ee (HPLC): −30 (R) % ee
  % ee of the 1,2-propanediol product, as observed by chiral HPLC (lower number): −30 % ee

## N,N′-Bis(2′-hydroxy-1′-naphthylidene)-[1R-(1α,2α,5α)]-2-amino-7,7-dimethyl-2-bicyclo[3.3.1]heptane-ethanamine [Salen 1c]
[1]
  ISES signal: § (These catalysts gave ISES signals <20 mAbs min−1 over 35 min.)

## CC1(C)CCN2CCC(C)(C)c3c(O)c(C=NC[C@H](Cc4ccc5ccccc5c4)N=Cc4cc5c6c(c4O)C(C)(C)CCN6CCC5(C)C)cc1c32 [Salen 5g, N,N′-Bis(8′-hydroxy-1′,1′,7′,7′-tetramethyljulolidinyl-9′-methylidene)-(1S)-(β-naphthylmethyl)-1,2-ethylenediamine]
[1]
  ISES signal: § (These catalysts gave ISES signals <20 mAbs min−1 over 35 min.)

## COC1C2OC(C)(C)OC2COC1(CN=Cc1ccc2ccccc2c1O)N=Cc1ccc2ccccc2c1O (stereo not drawn) [Salen 7d, N,N′-Bis(1′-hydroxy-2′-naphthylidene)-3-O-methyl-4,5-O-isopropylidene-1,2-dideoxy-β-Dfructopyranosyl-1,2-diamine]
[1]
  ISES signal: § (These catalysts gave ISES signals <20 mAbs min−1 over 35 min.)

## Oc1cc(OCc2ccccc2)ccc1C=NC[C@H](Cc1cccc2ccccc12)N=Cc1ccc(OCc2ccccc2)cc1O [Salen 4f, N,N′-Bis(4′-benzyloxysalicylidene)-(1S)-(α-naphthylmethyl)-1,2-ethylenediamine]
[1]
  % ee of the 1,2-propanediol product, as predicted by double-cuvette ISES (upper number): +57 % ee
[2]; 21 h
  NMR conv. (time): 24 (21 h) %
[2]
  % ee (HPLC): +51 (S) % ee
  % ee of the 1,2-propanediol product, as observed by chiral HPLC (lower number): +51 % ee

## CO[C@H]1[C@@H]2OC(C)(C)O[C@@H]2COC1(CN=Cc1c(O)ccc2ccccc12)N=Cc1c(O)ccc2ccccc12 (some centres unmarked) [Salen 7c, N,N′-Bis(2′-hydroxy-1′-naphthylidene)-3-O-methyl-4,5-O-isopropylidene-1,2-dideoxy-Dfructopyranosyl-1,2-diamine]
[1]
  ISES signal: § (These catalysts gave ISES signals <20 mAbs min−1 over 35 min.)
[2]; time not given
  NMR conv. (time): none obs

## CC(C)(C)c1cc(C=NC[C@H](Cc2ccccc2)N=Cc2cc(C(C)(C)C)cc(C(C)(C)C)c2O)c(O)c(C(C)(C)C)c1 [Salen 3a, N,N′-Bis(3′,5′-di-tert-butylsalicylidene)-(1S)-benzyl-1,2-ethylenediamine]
[1]
  % ee of the 1,2-propanediol product, as predicted by double-cuvette ISES (upper number): +48 % ee
[2]; 3 h
  NMR conv. (time): 46 (3 h) %
[2]
  % ee (HPLC): +55 (S) % ee
  % ee of the 1,2-propanediol product, as observed by chiral HPLC (lower number): +55 % ee

## Oc1c(I)cc(I)cc1C=NC[C@H](Cc1ccccc1)N=Cc1cc(I)cc(I)c1O [Salen 3e, N,N′-Bis(3′,5′-diiodosalicylidene)-(1S)-benzyl-1,2-ethylenediamine]
[1]
  ISES signal: § (These catalysts gave ISES signals <20 mAbs min−1 over 35 min.)

## Oc1cc(OCc2ccccc2)ccc1C=NC[C@H](Cc1ccccc1)N=Cc1ccc(OCc2ccccc2)cc1O [Salen 3f, N,N′-Bis(4′-benzyloxysalicylidene)-(1S)-benzyl-1,2-ethylenediamine]
[1]
  ISES signal: § (These catalysts gave ISES signals <20 mAbs min−1 over 35 min.)

## Oc1ccc2ccccc2c1C=NC[C@H](Cc1ccc2ccccc2c1)N=Cc1c(O)ccc2ccccc12 [Salen 5c]
[1]
  ISES signal: § (These catalysts gave ISES signals <20 mAbs min−1 over 35 min.)

## Oc1ccc2ccccc2c1C=NC[C@@H](N=Cc1c(O)ccc2ccccc12)c1ccccc1 [Salen 2c, N,N′-Bis(2′-hydroxy-1′-naphthylidene)-(1S)-phenyl-1,2-ethylenediamine]
[1]
  ISES signal: § (These catalysts gave ISES signals <20 mAbs min−1 over 35 min.)

## Oc1cc(OCc2ccccc2)ccc1C=NC[C@@H](N=Cc1ccc(OCc2ccccc2)cc1O)c1ccccc1 [Salen 2f, N,N′-Bis(4′-benzyloxysalicylidene)-(1S)-phenyl-1,2-ethylenediamine]
[1]
  ISES signal: § (These catalysts gave ISES signals <20 mAbs min−1 over 35 min.)

## CO[C@H]1[C@@H]2OC(C)(C)O[C@@H]2COC1(CN=Cc1c(O)ccc2ccccc12)N=Cc1c(O)ccc2ccccc12 (some centres unmarked) [Salen 6c, N,N′-Bis(2′-hydroxy-1′-naphthylidene)-3-O-methyl-4,5-O-isopropylidene-1,2-dideoxy-Dfructopyranosyl-1,2-diamine]
[1]
  ISES signal: § (These catalysts gave ISES signals <20 mAbs min−1 over 35 min.)

## Oc1ccc2ccccc2c1C=NC[C@H](Cc1cccc2ccccc12)N=Cc1c(O)ccc2ccccc12 [Salen 4c, N,N′-Bis(2′-hydroxy-1′-naphthylidene)-(1S)-(α-naphthylmethyl)-1,2-ethylenediamine]
[1]
  ISES signal: § (These catalysts gave ISES signals <20 mAbs min−1 over 35 min.)

## N,N′-Bis(4′-benzyloxysalicylidene)-[1R-(1α,2α,5α)]-2-amino-7,7-dimethyl-2-bicyclo[3.3.1]heptane-ethanamine [Salen 1f]
[1]
  ISES signal: § (These catalysts gave ISES signals <20 mAbs min−1 over 35 min.)

## N,N′-Bis(8′-hydroxy-1′,1′,7′,7′-tetramethyljulolidine-9′-methylidene)-[1R-(1α,2α,5α)]-2-amino-7,7-dimethyl-2-bicyclo[3.3.1]heptane-ethanamine [Salen 1g]
[1]
  ISES signal: § (These catalysts gave ISES signals <20 mAbs min−1 over 35 min.)

## CC1(C)CCN2CCC(C)(C)c3c(O)c(C=NC[C@H](Cc4cccc5ccccc45)N=Cc4cc5c6c(c4O)C(C)(C)CCN6CCC5(C)C)cc1c32 [Salen 4g, N,N′-Bis(8′-hydroxy-1′,1′,7′,7′-tetramethyljulolidinyl-9′-methylidene)-(1S)-α-naphthylmethyl-1,2-ethylenediamine]
[1]
  ISES signal: § (These catalysts gave ISES signals <20 mAbs min−1 over 35 min.)

## COC1C2OC(C)(C)OC2COC1(CN=Cc1ccc(OCc2ccccc2)cc1O)N=Cc1ccc(OCc2ccccc2)cc1O (stereo not drawn) [Salen 7f, N,N′-Bis(4′-benzyloxysalicylidene)-3-O-methyl-4,5-O-isopropylidene-1,2-dideoxy-β-Dfructopyranosyl-1,2-diamine]
[1]
  ISES signal: § (These catalysts gave ISES signals <20 mAbs min−1 over 35 min.)

From US20060263895A1, “Method for monitoring the stereoselectivity and relative rate of organic chemical reactions” (priority 2005, published 2006)
